Source: ChEMBL document CHEMBL1909294, “Translating clinical findings into knowledge in drug safety evaluation--drug induced liver injury prediction system (DILIps)” (PLoS Comput Biol, 2011)

Tests used:
Hepatotoxicity [1] = test system: Hepatotoxicity;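 on HepSE bilirubinemia: bilirubinemia hepatic side effect score drawn from the DILIps training data, a prediction system for drug-induced liver injury; call rule not given here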;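 on HepSE cholecystitis: Cholecystitis-related hepatic side effect score drawn from the DILIps (drug-induced liver injury prediction) training data set; call rule not given here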;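 on HepSE cholelithiasis: hepatic side effect score for cholelithiasis, drawn from the DILIps training data for predicting drug-induced liver injury; call rule not given here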;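 on HepSE cirrhosis: cirrhosis hepatic side effect score taken from the DILIps (drug-induced liver injury prediction) training set; call rule not given here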;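 on HepSE elevated liver function tests: hepatic side effect score for raised liver function tests, as recorded in the DILIps training set used for predicting drug-induced liver injury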; on HepSE hepatic failure: call rule not given here;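 on HepSE hepatomegaly: hepatic side effect score for hepatomegaly, taken from the training set of the DILIps drug-induced liver injury prediction system; call rule not given here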
Hepatotoxicity [2] = test system: Hepatotoxicity; remark: listed apart in the source;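 on HepSE bilirubinemia: bilirubinemia hepatic side effect score drawn from the DILIps training data, a prediction system for drug-induced liver injury; call rule not given here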;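 on HepSE cholecystitis: Cholecystitis-related hepatic side effect score drawn from the DILIps (drug-induced liver injury prediction) training data set; call rule not given here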;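 on HepSE cholelithiasis: hepatic side effect score for cholelithiasis, drawn from the DILIps training data for predicting drug-induced liver injury; call rule not given here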;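 on HepSE cirrhosis: cirrhosis hepatic side effect score taken from the DILIps (drug-induced liver injury prediction) training set; call rule not given here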;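 on HepSE elevated liver function tests: hepatic side effect score for raised liver function tests, as recorded in the DILIps training set used for predicting drug-induced liver injury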; on HepSE hepatic failure: call rule not given here;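 on HepSE hepatomegaly: hepatic side effect score for hepatomegaly, taken from the training set of the DILIps drug-induced liver injury prediction system; call rule not given here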
Hepatotoxicity [3] = test system: Hepatotoxicity; remark: listed apart in the source;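 on HepSE bilirubinemia: bilirubinemia hepatic side effect score drawn from the DILIps training data, a prediction system for drug-induced liver injury; call rule not given here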;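 on HepSE cholecystitis: Cholecystitis-related hepatic side effect score drawn from the DILIps (drug-induced liver injury prediction) training data set; call rule not given here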;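 on HepSE cholelithiasis: hepatic side effect score for cholelithiasis, drawn from the DILIps training data for predicting drug-induced liver injury; call rule not given here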;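 on HepSE cirrhosis: cirrhosis hepatic side effect score taken from the DILIps (drug-induced liver injury prediction) training set; call rule not given here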;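 on HepSE elevated liver function tests: hepatic side effect score for raised liver function tests, as recorded in the DILIps training set used for predicting drug-induced liver injury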; on HepSE hepatic failure: call rule not given here
Hepatotoxicity [4] = test system: Hepatotoxicity; remark: listed apart in the source;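 on HepSE bilirubinemia: bilirubinemia hepatic side effect score drawn from the DILIps training data, a prediction system for drug-induced liver injury; call rule not given here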;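 on HepSE cholecystitis: Cholecystitis-related hepatic side effect score drawn from the DILIps (drug-induced liver injury prediction) training data set; call rule not given here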;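 on HepSE cholelithiasis: hepatic side effect score for cholelithiasis, drawn from the DILIps training data for predicting drug-induced liver injury; call rule not given here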;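 on HepSE cirrhosis: cirrhosis hepatic side effect score taken from the DILIps (drug-induced liver injury prediction) training set; call rule not given here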;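 on HepSE elevated liver function tests: hepatic side effect score for raised liver function tests, as recorded in the DILIps training set used for predicting drug-induced liver injury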; on HepSE hepatic failure: call rule not given here
Hepatotoxicity [5] = test system: Hepatotoxicity; remark: listed apart in the source; on HepSE hepatic failure: call rule not given here
Hepatotoxicity [6] = test system: Hepatotoxicity; remark: listed apart in the source; on HepSE hepatic failure: call rule not given here
Hepatotoxicity [7] = test system: Hepatotoxicity; remark: listed apart in the source
Hepatotoxicity [8] = test system: Hepatotoxicity; remark: listed apart in the source
Hepatotoxicity [9] = test system: Hepatotoxicity; remark: listed apart in the source
Hepatotoxicity [10] = test system: Hepatotoxicity; remark: listed apart in the source
Hepatotoxicity [11] = test system: Hepatotoxicity; remark: listed apart in the source
Hepatotoxicity [12] = test system: Hepatotoxicity; remark: listed apart in the source
Hepatotoxicity [13] = test system: Hepatotoxicity; remark: listed apart in the source
Hepatotoxicity [14] = test system: Hepatotoxicity; remark: listed apart in the source

SMILES	HepSE_bilirubinemia (Hepatotoxicity [1])	HepSE_cholecystitis (Hepatotoxicity [2])	HepSE_cholelithiasis (Hepatotoxicity [3])	HepSE_cirrhosis (Hepatotoxicity [4])	HepSE_elevated liver function tests (Hepatotoxicity [5])	HepSE_hepatic failure (Hepatotoxicity [6])	HepSE_hepatic necrosis (Hepatotoxicity [7])	HepSE_hepatitis (Hepatotoxicity [8])	HepSE_hepatomegaly (Hepatotoxicity [9])	HepSE_jaundice (Hepatotoxicity [10])	HepSE_liver disease (Hepatotoxicity [11])	HepSE_liver fatty (Hepatotoxicity [12])	HepSE_liver function tests abnormal (Hepatotoxicity [13])	HepSE_Combined Scores (Hepatotoxicity [14])	HepSE_bilirubinemia (Hepatotoxicity [1]; Liver)	HepSE_cholecystitis (Hepatotoxicity [2]; Liver)	HepSE_cholelithiasis (Hepatotoxicity [3]; Liver)	HepSE_cirrhosis (Hepatotoxicity [4]; Liver)	HepSE_elevated liver function tests (Hepatotoxicity [5]; Liver)	HepSE_hepatic failure (Hepatotoxicity [6]; Liver)	further results
O=C1CN=C(c2ccccc2Cl)c2cc([N+](=O)[O-])ccc2N1 [CLONAZEPAM]	0	0	0	0	0	0	0	0	1	0	0	0	0	1	–	–	–	–	–	–	–
Clc1cccc(Cl)c1N=C1NCCN1 [CLONIDINE]	–	–	–	–	–	–	–	–	–	–	–	–	–	–	0	0	0	0	0	0	HepSE_hepatic necrosis (Hepatotoxicity [7]; Liver): 0; HepSE_hepatitis (Hepatotoxicity [8]; Liver): 1; HepSE_hepatomegaly (Hepatotoxicity [9]; Liver): 0; HepSE_jaundice (Hepatotoxicity [10]; Liver): 0; HepSE_liver disease (Hepatotoxicity [11]; Liver): 0; HepSE_liver fatty (Hepatotoxicity [12]; Liver): 0; HepSE_liver function tests abnormal (Hepatotoxicity [13]; Liver): 0; HepSE_Combined Scores (Hepatotoxicity [14]; Liver): 1
COC(=O)[C@H](c1ccccc1Cl)N1CCc2sccc2C1 [CLOPIDOGREL]	–	–	–	–	–	–	–	–	–	–	–	–	–	–	1	0	0	0	0	1	HepSE_hepatic necrosis (Hepatotoxicity [7]; Liver): 0; HepSE_hepatitis (Hepatotoxicity [8]; Liver): 1; HepSE_hepatomegaly (Hepatotoxicity [9]; Liver): 0; HepSE_jaundice (Hepatotoxicity [10]; Liver): 0; HepSE_liver disease (Hepatotoxicity [11]; Liver): 0; HepSE_liver fatty (Hepatotoxicity [12]; Liver): 1; HepSE_liver function tests abnormal (Hepatotoxicity [13]; Liver): 0; HepSE_Combined Scores (Hepatotoxicity [14]; Liver): 4
Clc1ccccc1C(c1ccccc1)(c1ccccc1)n1ccnc1 [CLOTRIMAZOLE]	0	0	0	0	0	0	0	0	0	0	0	0	1	1	–	–	–	–	–	–	–
CN1CCN(C2=Nc3cc(Cl)ccc3Nc3ccccc32)CC1 [CLOZAPINE]	0	0	0	0	0	0	0	1	0	1	0	0	0	2	–	–	–	–	–	–	–
C[C@]12CCC(=O)C=C1CC[C@@H]1[C@@H]2C(=O)C[C@@]2(C)[C@H]1CC[C@]2(O)C(=O)CO [CORTISONE]	0	0	0	0	0	0	0	0	0	0	0	0	0	0	–	–	–	–	–	–	–
O=C(O)c1cc(=O)c2c(OCC(O)COc3cccc4oc(C(=O)O)cc(=O)c34)cccc2o1 [CROMOLYN]	0	0	0	0	0	0	0	0	0	0	1	0	0	1	–	–	–	–	–	–	–
CN(C)CCC=C1c2ccccc2C=Cc2ccccc21 [CYCLOBENZAPRINE]	–	–	–	–	–	–	–	–	–	–	–	–	–	–	0	0	0	0	0	0	HepSE_hepatic necrosis (Hepatotoxicity [7]; Liver): 0; HepSE_hepatitis (Hepatotoxicity [8]; Liver): 1; HepSE_hepatomegaly (Hepatotoxicity [9]; Liver): 0; HepSE_jaundice (Hepatotoxicity [10]; Liver): 1; HepSE_liver disease (Hepatotoxicity [11]; Liver): 0; HepSE_liver fatty (Hepatotoxicity [12]; Liver): 0; HepSE_liver function tests abnormal (Hepatotoxicity [13]; Liver): 0; HepSE_Combined Scores (Hepatotoxicity [14]; Liver): 2
CN(C)CCOC(=O)C(c1ccccc1)C1(O)CCCC1 (configuration not stated) [CYCLOPENTOLATE]	0	0	0	0	0	0	0	0	0	0	0	0	0	0	–	–	–	–	–	–	–
O=P1(N(CCCl)CCCl)NCCCO1 (configuration not stated) [CYCLOPHOSPHAMIDE ANHYDROUS]	–	–	–	–	–	–	–	–	–	–	–	–	–	–	1	0	0	0	0	0	HepSE_hepatic necrosis (Hepatotoxicity [7]; Liver): 0; HepSE_hepatitis (Hepatotoxicity [8]; Liver): 0; HepSE_hepatomegaly (Hepatotoxicity [9]; Liver): 1; HepSE_jaundice (Hepatotoxicity [10]; Liver): 1; HepSE_liver disease (Hepatotoxicity [11]; Liver): 0; HepSE_liver fatty (Hepatotoxicity [12]; Liver): 0; HepSE_liver function tests abnormal (Hepatotoxicity [13]; Liver): 0; HepSE_Combined Scores (Hepatotoxicity [14]; Liver): 3
N[C@@H]1CON=C1O [CYCLOSERINE]	0	0	0	0	0	0	0	0	0	0	1	0	0	1	–	–	–	–	–	–	–
CN1CCC(=C2c3ccccc3C=Cc3ccccc32)CC1 [CYPROHEPTADINE]	0	0	0	0	0	1	0	1	0	1	0	0	0	3	–	–	–	–	–	–	–
CC(=O)[C@@]1(O)CC[C@H]2[C@@H]3C=C(Cl)C4=CC(=O)[C@@H]5C[C@@H]5[C@]4(C)[C@H]3CC[C@@]21C [CYPROTERONE]	0	0	0	1	0	1	1	1	1	1	0	0	0	6	–	–	–	–	–	–	–
